Literature values as cited in article PMC3544362 (Journal of medicinal chemistry, 2012).
Where two headings read alike, the source gives them in different places. One block for each molecule: values may come before it.

Experiments:
[1] = presumably rapid in vivo hydrolysis, ref [31]–[32]
[2] = rat, 60 min p.i., ref [32]
[3] = Sprague-Dawley rats, 5 min p.i.; ref [12]
[4] = Wistar rats, 60 min p.i., ref [16]

heart uptake (Sprague-Dawley rats, 60 min p.i., ref [17], [46]): 3.3 %ID/g
liver concentration (Wistar rats, 10 min p.i., ref [16]): 0.99 %ID/g
heart uptake [4]: 2.06 %ID/g
liver concentration [4]: 0.38 %ID/g
SMILES: CC(C)(C)n1ncc(OCc2ccc(COCC[18F])cc2)c(Cl)c1=O [Flurpiridaz F 18]

SMILES: CCN(CC)c1ccc2c(-c3ccccc3C(=O)OCC[18F])c3ccc(=[N+](CC)CC)cc-3oc2c1 [[^18F]3, 2-[^18F]fluoroethyl rhodamine B]
accumulation in mouse myocardium [1]: did not accumulate in mouse myocardium
Heart/blood ([2]; tissue ratio): 25.8
Blood [2]: 0.08 ± 0.03 %ID/g
Bone [2]: 0.45 ± 0.08 %ID/g
Gut [2]: 2.40 ± 0.53 %ID/g
Heart [2]: 2.06 ± 0.61 %ID/g
Kidney [2]: 8.31 ± 0.81 %ID/g
Liver [2]: 0.89 ± 0.07 %ID/g
Lung [2]: 1.78 ± 0.65 %ID/g
Muscle [2]: 0.16 ± 0.04 %ID/g
Skin [2]: 0.20 ± 0.02 %ID/g
Spleen [2]: 5.63 ± 0.78 %ID/g

heart uptake [3]: 1.64 %ID/g
heart-to-blood ratio [3]: 11
SMILES: Fc1ccc([P+](c2ccccc2)(c2ccccc2)c2ccccc2)cc1 [^18F-FTPP]
